EC50 data for 14 molecules are collected here from US20240270821A1, “GIP/GLP1/GCG TRI-RECEPTOR AGONISTS AND USES THEREOF” (priority 2023, published 2024).

Usually pEC50 stands for the negative decadic logarithm of the EC50, by convention in mol/L.

pEC50: −log10 of the molar value. Where two headings read alike, the source gives them in different places. Starred links: 1 amine or outer side, 2 acyl side, 3 side chain; linkers in the order of their positions; H or OH if unused. Non-standard residues stand in square brackets, D forms with d. Residues, ends and D or L forms follow the SMILES beside them. Groups on a side chain read outwards from the residue. No end group written: not given here. *: point of attachment. C18 diacid = O=C(O)CCCCCCCCCCCCCCCCC(=O)*; αMePhe(2-F) = C[C@](N)(Cc1ccccc1F)C(=O)O; γGlu = O=C(O)[C@H](CCC(=O)[*:2])N[*:1]; αMe4Pal = C[C@](N)(Cc1ccncc1)C(=O)O; αMeY = C[C@](N)(Cc1ccc(O)cc1)C(=O)O; αMeF = C[C@](N)(Cc1ccccc1)C(=O)O; 4Pal = N[C@@H](Cc1ccncc1)C(=O)O; αMeL = CC(C)C[C@](C)(N)C(=O)O; αMeS = C[C@](N)(CO)C(=O)O; Orn = NCCC[C@H](N)C(=O)O; AEEA = NCCOCCOCC(=O)O; Aib = CC(C)(N)C(=O)O

Holding throughout (format): cell-based
Test [1] has as its target T1, hGIPR (Homo sapiens, UniProt P48546).
T1 sequence (P48546 22-466): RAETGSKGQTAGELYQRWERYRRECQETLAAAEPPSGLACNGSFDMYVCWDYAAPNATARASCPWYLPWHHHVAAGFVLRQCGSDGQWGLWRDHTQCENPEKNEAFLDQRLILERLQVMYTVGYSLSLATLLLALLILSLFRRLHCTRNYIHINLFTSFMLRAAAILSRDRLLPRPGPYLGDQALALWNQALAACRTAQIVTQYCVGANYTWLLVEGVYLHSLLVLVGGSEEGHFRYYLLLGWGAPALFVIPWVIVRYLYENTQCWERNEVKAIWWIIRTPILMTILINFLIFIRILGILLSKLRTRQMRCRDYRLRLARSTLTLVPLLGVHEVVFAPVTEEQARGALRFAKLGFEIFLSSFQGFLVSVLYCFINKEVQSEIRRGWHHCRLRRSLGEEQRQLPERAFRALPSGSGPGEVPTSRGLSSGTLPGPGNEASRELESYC
As to the kind of experiment: Functional cAMP activity in the presence of 1% HSA. As to conditions: read-out: cAMP Rel EC50, hGIPR.

Test [2] addresses T2, hGLP-1R (Homo sapiens, UniProt P43220). Briefly: Functional cAMP activity in the presence of 1% HSA. As to conditions: read-out: cAMP Rel EC50, hGLP-1R.
Test [3] deals with human GcgR (Homo sapiens, UniProt P47871). Briefly: Functional cAMP activity in the presence of 1% HSA. As to conditions: read-out: cAMP Rel EC50, hGcgR.
Chain of human GcgR (P47871 26-477): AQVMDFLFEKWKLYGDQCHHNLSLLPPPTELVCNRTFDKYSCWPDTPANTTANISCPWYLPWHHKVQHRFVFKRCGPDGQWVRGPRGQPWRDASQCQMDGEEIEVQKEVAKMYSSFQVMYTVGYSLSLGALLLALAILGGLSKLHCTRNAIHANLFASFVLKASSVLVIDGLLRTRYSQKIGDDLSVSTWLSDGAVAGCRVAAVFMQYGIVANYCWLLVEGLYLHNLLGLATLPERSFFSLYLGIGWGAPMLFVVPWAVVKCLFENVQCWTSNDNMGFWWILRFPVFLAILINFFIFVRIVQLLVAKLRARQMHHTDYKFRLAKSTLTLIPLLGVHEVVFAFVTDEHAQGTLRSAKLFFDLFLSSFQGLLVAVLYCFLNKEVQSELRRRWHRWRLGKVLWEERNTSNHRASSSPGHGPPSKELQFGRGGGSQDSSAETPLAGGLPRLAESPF
For test [4], the target named is T1, hGIPR. Briefly: Functional cAMP activation in the presence of 0.1% casein (no HSA). The following applies: read-out: Relative cAMP EC50, hGIPR.
The target of test [5] is T2, hGLP-1R. Described as above. As to conditions: read-out: Relative cAMP EC50, hGLP-1R.
In test [6] the target is hGcgR (Homo sapiens, UniProt P47871). The test is described as above. The following applies: read-out: Relative cAMP EC50, hGcgR.
Chain of hGcgR (P47871 26-477): as above
Setting [7] is: HEK-293 clonal cell line, 1% HSA, geometric mean of relative EC50.
Setting [8] is: in the presence of 0.1% casein (no HSA), geometric mean of relative EC50.
Where [9] appears, read: in the presence of 0.1% casein (no HSA), geometric mean.
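Wherever Relative cAMP EC50, hGIPR is given: intracellular cAMP rise after 30 min at 37 °C read by HTRF against a standard curve, scaled between buffer alone (0%) and top control ligand concentration (100%), four-parameter fit.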
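Wherever Relative cAMP EC50, hGLP-1R is given: intracellular cAMP rise after 30 min at 37 °C read by HTRF, normalized between buffer only (0%) and maximal control ligand (100%), four-parameter variable-slope fit.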
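Wherever Relative cAMP EC50, hGcgR is given: intracellular cAMP rise after 30 min at 37 °C, read by HTRF against a cAMP standard curve, scaled from buffer only (0%) to maximal control ligand response (100%).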

T2 sequence (P43220 24-463): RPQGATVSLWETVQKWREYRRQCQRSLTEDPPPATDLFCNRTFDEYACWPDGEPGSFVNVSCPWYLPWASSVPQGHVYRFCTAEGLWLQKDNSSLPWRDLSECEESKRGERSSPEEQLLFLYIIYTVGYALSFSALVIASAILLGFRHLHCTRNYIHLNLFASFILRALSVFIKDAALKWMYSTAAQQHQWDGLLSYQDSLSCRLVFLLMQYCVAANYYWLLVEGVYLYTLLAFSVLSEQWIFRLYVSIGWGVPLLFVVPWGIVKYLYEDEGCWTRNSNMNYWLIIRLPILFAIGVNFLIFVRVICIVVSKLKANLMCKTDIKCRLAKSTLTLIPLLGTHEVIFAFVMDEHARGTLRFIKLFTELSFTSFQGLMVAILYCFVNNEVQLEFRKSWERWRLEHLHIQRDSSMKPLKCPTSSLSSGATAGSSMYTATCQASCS

In the case of “H-Y[Aib]QGTFTSDFS[Orn][αMeL]LDKK([AEEA-γGlu-C18 diacid])AQ[Aib]AFIE[4Pal]LLEGGPSSGAPPPGGS-NH2 [Example 496]”, the pEC50 in test [1] was 7.22; in test [2] it was 5.83; in test [3], 5.82; in test [4], 9.41; in test [5], 8.01; in test [6], 8.08.
In the case of “Y[Aib]QGT[αMePhe(2-F)]TSD[4Pal][αMeS]I[αMeL]LD[Orn]K([γGlu-γGlu-C18 diacid])AQ[αMe4Pal]EFI[dE][αMeY]LVEGGPSSGEPPPSGSEE-NH2 [Example 740]”, the pEC50 in test [1] was 9.20; in test [2], 7.53; in test [3], 6.74; in test [4], 10.92; in test [5] it was 9.34; in test [6], 8.27.
Take `CC[C@H](C)[C@H](NC(=O)[C@H](Cc1ccccc1)NC(=O)[C@H](CCCN)NC(=O)C(C)(C)NC(=O)[C@H](CCC(N)=O)NC(=O)[C@H](C)NC(=O)[C@H](CCCCNC(=O)CC[C@H](NC(=O)CC[C@H](NC(=O)CCCCCCCCCCCCCCCCC(=O)O)C(=O)O)C(=O)O)NC(=O)[C@H](CCCN)NC(=O)[C@H](CC(=O)O)NC(=O)[C@H](CC(C)C)NC(=O)[C@](C)(CC(C)C)NC(=O)[C@@H](NC(=O)[C@](C)(CO)NC(=O)[C@H](Cc1ccncc1)NC(=O)[C@H](CC(=O)O)NC(=O)[C@H](CO)NC(=O)[C@@H](NC(=O)[C@](C)(Cc1ccccc1F)NC(=O)[C@@H](NC(=O)CNC(=O)[C@H](CCC(N)=O)NC(=O)C(C)(C)NC(=O)[C@@H](N)Cc1ccc(O)cc1)[C@@H](C)O)[C@@H](C)O)[C@@H](C)CC)C(=O)N[C@H](CCC(=O)O)C(=O)N[C@@](C)(Cc1ccc(O)cc1)C(=O)N[C@@H](CC(C)C)C(=O)N[C@@H](CCC(N)=O)C(=O)N[C@@H](CCC(=O)O)C(=O)NCC(=O)NCC(=O)N1CCC[C@H]1C(=O)N[C@@H](CO)C(=O)N[C@@H](CO)C(=O)NCC(=O)N[C@@H](CCC(=O)O)C(=O)N1CCC[C@H]1C(=O)N1CCC[C@H]1C(=O)N1CCC[C@H]1C(=O)N[C@@H](CCC(=O)O)C(N)=O` [Example 439] (H-Y[Aib]QGT[αMePhe(2-F)]TSD[4Pal][αMeS]I[αMeL]LD[Orn]K([γGlu-γGlu-C18 diacid])AQ[Aib][Orn]FI[dE][αMeY]LQEGGPSSGEPPPE-NH2): the pEC50 is 7.84 in test [1]; 7.82 in test [2]; 6.78 in test [3]; 10.20 in test [4]; 9.53 in test [5]; 8.36 in test [6].
On to “H-Y[Aib]QGT[αMePhe(2-F)]TSD[4Pal]SI[αMeL]LDKK([γGlu-γGlu-C18 diacid])AQ[Aib]AFIEYLQEGGPSSGEPPPSGSEE-NH2 [Example 634]”, for which the pEC50 in test [1] (setting [7]) is 8.83; in test [2] (setting [7]), 7.46; in test [3] (setting [7]), 6.01; in test [4] (setting [8]), 10.71; in test [5] (setting [8]), 9.39; in test [6] (setting [8]) it was 8.19.
Turning to “H-Y[Aib]QGTFTSDFS[Orn][αMeL]LDKK([AEEA-γGlu-C18 diacid])AQ[αMe4Pal]DFIEYLIE[Aib]GPSSGAPPPSGS-NH2 [Example 880]”, the pEC50 in test [1] is 7.12; in test [2] it was 6.03; in test [3], 6.25; in test [4] (setting [9]) it was 9.94; in test [5] (setting [9]), 8.11; in test [6] (setting [9]), 8.45.
Take “Y[Aib]QGTFTSD[4Pal]SQ[αMeL]LDKK([AEEA-γGlu-C18 diacid])AQ[Aib]AFIEYLLE[dA]GPSSGAPPPSGS-NH2 [Example 820]”: the pEC50 is 7.76 in test [1]; 6.52 in test [2]; 5.90 in test [3]; 9.92 in test [4] (setting [9]); 8.56 in test [5] (setting [9]); 8.17 in test [6] (setting [9]).
“H-Y[Aib]QGTFTSD[4Pal]SQ[αMeL]LDKK([γGlu-γGlu-C18 diacid])AQ[αMe4Pal]AFIEYLIAGGPSSGAPPPEGS-NH2 [Example 969]”: the pEC50 is 7.90 in test [1]; 6.95 in test [2]; 6.18 in test [3]; 9.85 in test [4] (setting [9]); 8.92 in test [5] (setting [9]); 8.26 in test [6] (setting [9]).
As for “H-Y[Aib]QGT[αMePhe(2-F)]TSD[4Pal]SI[αMeL]LDKK([γGlu-γGlu-C18 diacid])AQ[Aib]AFIEYLTEGGPSSGEPPPSGSEE-NH2 [Example 633]”, the pEC50 was 8.79 in test [1] (setting [7]); 7.39 in test [2] (setting [7]); 5.82 in test [3] (setting [7]); 10.73 in test [4] (setting [8]); 9.38 in test [5] (setting [8]); 7.99 in test [6] (setting [8]).
For `CC[C@H](C)[C@H](NC(=O)[C@H](Cc1ccccc1)NC(=O)[C@H](C)NC(=O)C(C)(C)NC(=O)[C@H](CCC(N)=O)NC(=O)[C@H](C)NC(=O)[C@H](CCCCNC(=O)COCCOCCNC(=O)CC[C@H](NC(=O)CCCCCCCCCCCCCCCCC(=O)O)C(=O)O)NC(=O)[C@H](CCCCN)NC(=O)[C@H](CC(=O)O)NC(=O)[C@H](CC(C)C)NC(=O)[C@](C)(CC(C)C)NC(=O)[C@@H](NC(=O)[C@H](CO)NC(=O)[C@H](Cc1ccc(O)cc1)NC(=O)[C@H](CC(=O)O)NC(=O)[C@H](CO)NC(=O)[C@@H](NC(=O)[C@](C)(Cc1ccccc1)NC(=O)[C@@H](NC(=O)CNC(=O)[C@H](CCC(N)=O)NC(=O)C(C)(C)NC(=O)[C@@H](N)Cc1ccc(O)cc1)[C@@H](C)O)[C@@H](C)O)[C@@H](C)CC)C(=O)N[C@@H](CCC(=O)O)C(=O)N[C@@H](Cc1ccc(O)cc1)C(=O)N[C@@H](CC(C)C)C(=O)N[C@@H](CCC(=O)O)C(=O)N[C@@H](CCC(=O)O)C(=O)NCC(=O)NCC(=O)N1CCC[C@H]1C(=O)N[C@@H](CO)C(=O)N[C@@H](CO)C(=O)NCC(=O)N[C@@H](C)C(=O)N1CCC[C@H]1C(=O)N1CCC[C@H]1C(=O)N1CCC[C@H]1C(=O)N[C@@H](CO)C(N)=O` [Example 394] (H-Y[Aib]QGT[αMeF]TSDYSI[αMeL]LDKK([AEEA-γGlu-C18 diacid])AQ[Aib]AFIEYLEEGGPSSGAPPPS-NH2), the pEC50 in test [1] was 8.14; in test [2], 7.48; in test [3] it was 5.96; in test [4] it was 10.74; in test [5] it was 9.65; in test [6], 8.25.
Consider “H-Y[Aib]QGT[αMePhe(2-F)]TSD[4Pal]SI[αMeL]LD[Orn]K([AEEA-γGlu-C18 diacid])AQ[αMe4Pal][Orn]FI[dE][αMeY]LIEGGPSSGEPPPETE-NH2 [Example 678]”, for which the pEC50 in test [1] is 9.03; in test [2], 7.66; in test [3] it was 6.61; in test [4] it was 10.88; in test [5] it was 9.60; in test [6] it was 8.64.
For the molecule “H-Y[Aib]QGTFTSD[4Pal]SQ[αMeL]LD[Orn]K([dE-γGlu-C18 diacid])AQ[αMe4Pal]AFIE[αMeY]LIE[Aib]GPSSGEPPPSGSEE-NH2 [Example 1103]”, the pEC50 in test [1] was 7.71; in test [2], 6.74; in test [3], 5.87; in test [4] (setting [9]) it was 10.14; in test [5] (setting [9]) it was 8.97; in test [6] (setting [9]), 7.95.
For “H-Y[Aib]QGTFTSD[4Pal]SQ[αMeL]LDKK([γGlu-γGlu-C18 diacid])AQ[αMe4Pal]QFIE[αMeY]LIEGGPSSGAPPPSGS-NH2 [Example 934]”, the negative logarithm of the EC50 (pEC50) was 7.55 in test [1]; 6.76 in test [2]; 5.86 in test [3]; 10.13 in test [4] (setting [9]); 9.19 in test [5] (setting [9]); 8.56 in test [6] (setting [9]).
In the case of “H-Y[Aib]QGT[αMePhe(2-F)]TSD[4Pal][αMeS]ILLD[Orn]K([γGlu-γGlu-C18 diacid])AQ[Aib][Orn]FI[dE]YLIEGGPSSGEPPPEGAEE-NH2 [Example 604]”, the pEC50 in test [1] was 8.32; in test [2], 7.29; in test [3], 6.37; in test [4] it was 9.79; in test [5] it was 9.15; in test [6] it was 8.26.
With “H-Y[Aib]QGT[αMePhe(2-F)]TSD[4Pal]SILLDKK([γGlu-γGlu-C18 diacid])AQ[Aib]AFIEYLEEGGPSSGAPPPSGTE-NH2 [Example 509]”, the pEC50 in test [1] was 8.30; in test [2], 7.16; in test [3], 6.21; in test [4], 10.25; in test [5], 9.19; in test [6] it was 8.33.
